The record followed here is patent publication US11572590B2, “Methods for evaluating tumor cell spheroids using 3D microfluidic cell culture device” (Dana-Farber Cancer Institute, Inc., priority 2017, dated 2023).

Where two headings read alike, the source gives them in different places.

In one test the test system is CT26 MDOTS. The experiment in a line: Live/dead (AO/PI) imaging of CT26 MDOTS in 3D microfluidic culture. Format: cell-based, murine. The conditions noted are these: Cmpd1 (1 μM) + αPD-1, 6 days. As to the method:
Fresh tumor specimens (murine and human patients) were received in media (DMEM) on ice and minced in a 10 cm dish (on ice) using sterile forceps and scalpel. Minced tumor was resuspended in DMEM ([…], […] sodium pyruvate, 1:100 penicillin-streptomycin) (Corning CellGro, Manassas, Va.) +10% FBS (Gemini Bio-Products, West Sacramento, Calif.), 100 U/mL collagenase type IV (Life Technologies, Carlsbad, Calif.), and 15 mM HEPES (Life Technologies, Carlsbad, Calif.), except for CT26 tumors that were prepared in RPMI. Samples were pelleted and resuspended in 10-20 mL media. Red blood cells were removed from visibly bloody samples using RBC Lysis Buffer (Boston Bio-Products, Ashland, Mass.). […]
Dual labeling was performed by loading microfluidic device with Nexcelom ViaStain™ AO/PI Staining Solution (Nexcelom, CS2-0106). Following incubation with the dyes (20 minutes at room temperature in the dark), images were captured on a Nikon Eclipse 80i fluorescence microscope equipped with Z-stack (Prior) and CoolSNAP CCD camera (Roper Scientific). […] Live and dead cell quantitation was performed by measuring total cell area of each dye. […]

The next test concerns the target off-target kinases (Homo sapiens, UniProt P12931). Description: SelectScreen Kinase Profiling, single point inhibition and IC50 for off-target kinases. Format: biochemical. Details: other: SRC N1; 1000 μM; ATP Km app; ZLYTE. Particulars: SRC N1, ATP Km app, ZLYTE. The method, then: Biochemical single point inhibition and IC50 concentrations for TBK1, IKKε (IKBKE), and off-target kinases were determined at ThermoFisher Scientific using SelectScreen Kinase Profiling Services (Madison, Wis., USA) (Tables S4A and S4B-1-7). To determine cellular potency, the human colorectal cancer carcinoma cell line HCT116 (ATCC, Manassas, Va.) was maintained in T175 flasks in complete RPMI medium; RPMI 1640 supplemented with 10% FBS, 1× Penicillin-Streptomycin solution and 1×MEM (non-essential amino acids). HCT116 cells were grown to 90-95% confluency in T175 flasks containing complete RPMI medium and transfected in bulk using Lipofectamine 2000 (Invitrogen, Carlsbad, Calif.) with 70 μg of ISG54-luciferase reporter plasmid (Elim Biopharmaceuticals Inc., Hayward, Calif.). The reporter plasmid contains a luciferase gene expression cassette under the transcriptional regulation of the promoter of the human interferon stimulated gene 54 (ISG54). Transfection of the cells was allowed to take place for 6 hours, after which the cells were harvested by treatment with 0.25% trypsin EDTA (Corning Inc., Corning, N.Y.). Trypsinized cells were added to 384-well poly-d-lysine treated black clear bottom tissue culture assay plates (Greiner Bio-One GmbH, Kremsmünster, Austria) at a density of 20,000 cells/well in 80 μL of complete RPMI medium and incubated overnight. After 16-18 hours post-transfection, the assay plates were washed with PBS (Corning Inc., Corning, N.Y.), followed by addition of 80 μL/well of serum-free RPMI 1640 medium containing 1× Penicillin-Streptomycin solution, 1×MEM and 350 nL of DMSO or titrations of Compound 1. […] The assay plates were incubated for 5 hours at 37° C., followed by addition of One-Glo luciferase firefly reagent (Promega, Madison, Wis.) at 1:1 volume/well and luminescence was measured in an EnVision Multilabel Plate Reader (PerkinElmer, Santa Clara, Calif.). The EC50 values were calculated from the fit of the dose-response curves to a four-parameter equation. […]

off-target kinases, sequence (P12931 1-542 isoform P12931-2): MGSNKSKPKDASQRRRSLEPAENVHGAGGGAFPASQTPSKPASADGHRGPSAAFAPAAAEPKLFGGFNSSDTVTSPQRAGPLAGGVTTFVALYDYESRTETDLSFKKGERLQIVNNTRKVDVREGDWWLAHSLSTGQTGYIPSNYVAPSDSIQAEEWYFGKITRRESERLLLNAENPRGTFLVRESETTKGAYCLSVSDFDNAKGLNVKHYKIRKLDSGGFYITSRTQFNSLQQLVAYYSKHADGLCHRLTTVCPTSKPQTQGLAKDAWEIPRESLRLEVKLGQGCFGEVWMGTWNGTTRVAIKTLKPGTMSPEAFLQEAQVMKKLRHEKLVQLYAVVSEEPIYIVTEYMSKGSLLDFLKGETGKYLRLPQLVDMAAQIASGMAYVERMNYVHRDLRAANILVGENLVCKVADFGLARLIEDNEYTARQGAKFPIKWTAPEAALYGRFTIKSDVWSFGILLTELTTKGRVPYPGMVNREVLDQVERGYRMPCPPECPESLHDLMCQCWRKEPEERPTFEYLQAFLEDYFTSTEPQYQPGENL

Regarding `N#Cc1cc(-c2ncnc(Nc3ccc(N4CCN(C5COC5)CC4)cc3)n2)ccc1OC1CCOCC1` [Compound 1, 5-(4-((4-(4-(oxetan-3-yl)piperazin-1-yl)phenyl)amino)-1,3,5-triazin-2-yl)-2-((tetrahydro-2H-pyran-4-yl)oxy)benzonitrile], the “killing of CT26 MDOTS, ex vivo combination treatment” value in the test on CT26 MDOTS is reported as “enhanced killing”. Besides, the inhibition (in general, the relative decrease from the control value, in per cent) came to 54% at off-target kinases (read-out: % Inhibition 1), 60% at off-target kinases (read-out: % Inhibition 2) and 57% at off-target kinases (read-out: % Inhibition Avg).
